{"source": "paper PMC2957921", "about": "“Evaluation of Computational Docking to Identify Pregnane X Receptor Agonists in the ToxCast Database” (Environmental Health Perspectives, 2010)", "key": {"hPXR [1]": {"target": "T1, hPXR (Homo sapiens, UniProt O75469)", "T1 sequence (O75469 1-434)": "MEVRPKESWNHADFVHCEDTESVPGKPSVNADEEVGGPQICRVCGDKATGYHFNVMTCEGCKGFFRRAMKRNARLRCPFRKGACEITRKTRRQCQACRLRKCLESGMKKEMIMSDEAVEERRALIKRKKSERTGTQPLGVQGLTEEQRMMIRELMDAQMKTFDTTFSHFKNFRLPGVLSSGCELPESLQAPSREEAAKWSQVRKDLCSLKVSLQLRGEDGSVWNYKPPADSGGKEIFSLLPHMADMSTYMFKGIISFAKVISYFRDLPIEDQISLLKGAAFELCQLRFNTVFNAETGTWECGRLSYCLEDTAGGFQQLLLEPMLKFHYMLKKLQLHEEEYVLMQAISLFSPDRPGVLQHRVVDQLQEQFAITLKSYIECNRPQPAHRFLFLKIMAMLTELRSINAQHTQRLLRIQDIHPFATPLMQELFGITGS", "assay": "hPXR reporter gene assay with DPX-2 cells, antagonist mode in the presence of rifampicin", "details": "DPX-2 cell assay in the presence of rifampicin; data not shown"}, "hPXR [2]": {"target": "T1, hPXR", "details": "cited from earlier work"}, "DPX-2 cells": {"system": "DPX-2 cells", "assay": "Cell viability (CellTiter-Fluor) in DPX-2 cells"}, "hPXR [3]": {"target": "T1, hPXR", "details": "HeLa cells; ref Lemaire et al. 2006; cited from earlier work"}, "hPXR [4]": {"target": "T1, hPXR", "assay": "hPXR luciferase-based reporter assay in HepG2 cells", "details": "for Activity in HepG2 cells compared with NCGC DPX-2 cells: comparison of Table 2 data"}, "hPXR [5]": {"target": "T1, hPXR"}, "hPXR [6]": {"target": "T1, hPXR", "assay": "hPXR reporter gene assay with DPX-2 cells, agonist mode"}, "in vitro": {"assay": "in vitro", "details": "human"}, "[7]": {"details": "read-out: Cell viability IC50 (symbol), 48 hr"}, "[8]": {"details": "HepG2 cells, luciferase reporter"}, "[9]": {"details": "read-out: HepG2 hPXR EC50, HepG2 cells, luciferase reporter"}, "[10]": {"details": "DPX-2 cells, cutoff for activity 200 μM, ref Judson et al. 2010"}, "[11]": {"details": "read-out: DPX-2 hPXR EC50, DPX-2 cells, agonist mode"}}, "note": "Where two headings read alike, the source gives them in different places.", "data": [{"compound": "COC(=O)c1ccc(CNS(C)(=O)=O)cc1S(=O)(=O)NC(=O)Nc1nc(OC)cc(OC)n1", "note": "[Mesosulfuron-methyl]", "values": [{"measurement": "PXR antagonist or allosteric antagonist activity", "setting": "hPXR [1]", "value": "not antagonists or allosteric antagonists"}, {"measurement": "U.S. EPA ToxCast (NCGC) hPXR DPX-2 classification", "setting": "hPXR [2]", "value": "N (key: A, agonist; N, nonagonist)"}, {"measurement": "IC50", "setting": "DPX-2 cells; [7]", "value": "> 50", "unit": "µM"}]}, {"compound": "CCCN(CCOc1c(Cl)cc(Cl)cc1Cl)C(=O)n1ccnc1", "note": "[Prochloraz]", "values": [{"measurement": "hPXR activity in HeLa cells compared with NCGC DPX-2 cells", "setting": "hPXR [3]", "value": "more active in HeLa cells than DPX-2 cells"}, {"measurement": "U.S. EPA ToxCast (NCGC) hPXR DPX-2 classification", "setting": "hPXR [2]", "value": "N (key: A, agonist; N, nonagonist)"}]}, {"compound": "CCCCC(CC)COC(=O)c1ccccc1C(=O)OCC(CC)CCCC", "note": "(stereo not shown) [Diethylhexyl phthalate]", "values": [{"measurement": "Efficacy relative to 10 μM rifampicin", "setting": "hPXR [4]; HepG2 cells", "value": 0.63}, {"measurement": "HepG2 hPXR agonist class", "setting": "hPXR [4]; [8]", "value": "S (S, EC50 < 10 μM)"}, {"measurement": "Activity in HepG2 cells compared with NCGC DPX-2 cells", "setting": "hPXR [4]", "value": "more active in HepG2 cells"}, {"measurement": "EC50", "setting": "hPXR [4]; [9]", "value": 1800, "unit": "nM"}, {"measurement": "EC50", "setting": "hPXR [2]", "value": 20.8, "unit": "µM"}, {"measurement": "U.S. EPA ToxCast (NCGC) hPXR DPX-2 classification", "setting": "hPXR [2]", "value": "A (20.75) (key: A, agonist; N, nonagonist)"}]}, {"compound": "c1ccc2[nH]c(-c3cscn3)nc2c1", "note": "[Thiabendazole]", "values": [{"measurement": "U.S. EPA ToxCast (NCGC) hPXR DPX-2 classification", "setting": "hPXR [2]; [10]", "value": "N (N, nonagonist)"}]}, {"compound": "CN(C)C(=O)Nc1ccc(Cl)c(Cl)c1", "note": "[Diuron]", "values": [{"measurement": "U.S. EPA ToxCast (NCGC) hPXR DPX-2 classification", "setting": "hPXR [2]", "value": "N (key: A, agonist; N, nonagonist)"}]}, {"compound": "CCc1cccc(CC)c1N(COC)C(=O)CCl", "note": "[Alachlor]", "values": [{"measurement": "hPXR activity in HeLa cells compared with NCGC DPX-2 cells", "setting": "hPXR [3]", "value": "active in NCGC DPX-2 cells but not in HeLa cells"}, {"measurement": "EC50", "setting": "hPXR [2]", "value": 15.4, "unit": "µM"}, {"measurement": "U.S. EPA ToxCast (NCGC) hPXR DPX-2 classification", "setting": "hPXR [2]", "value": "A (15.35) (key: A, agonist; N, nonagonist)"}]}, {"compound": "COc1cc(OC)nc(NC(=O)NS(=O)(=O)c2cc(NC=O)ccc2C(=O)N(C)C)n1", "note": "[Foramsulfuron]", "values": [{"measurement": "EC50", "setting": "hPXR [4]", "value": "> 50000", "unit": "nM"}, {"measurement": "hPXR agonist activity in HepG2 luciferase assay, in words", "setting": "hPXR [5]", "value": "weak agonists"}, {"measurement": "NCGC ToxCast hPXR classification, in words", "setting": "hPXR [2]", "value": "nonagonists"}]}, {"compound": "C=CCOC(Cn1ccnc1)c1ccc(Cl)cc1Cl", "note": "(stereo not shown) [Imazalil]", "values": [{"measurement": "hPXR activity in HeLa cells compared with NCGC DPX-2 cells", "setting": "hPXR [3]", "value": "active in NCGC DPX-2 cells but not in HeLa cells"}, {"measurement": "U.S. EPA ToxCast (NCGC) hPXR DPX-2 classification", "setting": "hPXR [2]; [10]", "value": "A (36.54) (A, agonist)"}, {"measurement": "EC50", "setting": "hPXR [2]", "value": 36.5, "unit": "µM"}]}, {"compound": "CC(C)[C@H](C(=O)O[C@H](C#N)c1cccc(Oc2ccccc2)c1)c1ccc(Cl)cc1", "note": "[Esfenvalerate]", "values": [{"measurement": "HepG2 hPXR agonist class", "setting": "hPXR [4]; [8]", "value": "S (S, EC50 < 10 μM)"}, {"measurement": "Activity in HepG2 cells compared with NCGC DPX-2 cells", "setting": "hPXR [4]", "value": "more active in HepG2 cells"}, {"measurement": "EC50", "setting": "hPXR [4]; [9]", "value": 1500, "unit": "nM"}, {"measurement": "EC50", "setting": "hPXR [2]", "value": 27, "unit": "µM"}, {"measurement": "U.S. EPA ToxCast (NCGC) hPXR DPX-2 classification", "setting": "hPXR [2]", "value": "A (26.98) (key: A, agonist; N, nonagonist)"}, {"measurement": "IC50", "setting": "DPX-2 cells; [7]", "value": "> 50", "unit": "µM"}, {"measurement": "DPX-2 hPXR agonist class", "setting": "hPXR [6]; DPX-2 cells, agonist mode", "value": "S (S, EC50 < 10 μM)"}, {"measurement": "EC50", "setting": "hPXR [6]; [11]", "value": 8.94, "unit": "µM"}]}, {"compound": "COC(=O)c1cccc(C)c1S(=O)(=O)NC(=O)Nc1nc(OCC(F)(F)F)nc(N(C)C)n1", "note": "[Triflusulfuron methyl]", "values": [{"measurement": "U.S. EPA ToxCast (NCGC) hPXR DPX-2 classification", "setting": "hPXR [2]", "value": "N (key: A, agonist; N, nonagonist)"}]}, {"compound": "CC1(C)C(C=C(Cl)Cl)C1C(=O)OC(C#N)c1cccc(Oc2ccccc2)c1", "note": "(stereo not drawn) [α-Cypermethrin]", "values": [{"measurement": "EC50", "setting": "hPXR [4]", "value": 1600, "unit": "nM"}, {"measurement": "Activity in HepG2 cells compared with NCGC DPX-2 cells", "setting": "hPXR [5]", "value": "more active in HepG2 cells"}, {"measurement": "EC50", "setting": "hPXR [2]", "value": 18.3, "unit": "µM"}, {"measurement": "IC50 at 48 h", "setting": "in vitro", "value": "> 50", "unit": "µM"}, {"measurement": "EC50", "setting": "hPXR [6]", "value": 0.88, "unit": "µM"}]}, {"compound": "N#CC(CCc1ccc(Cl)cc1)(Cn1cncn1)c1ccccc1", "note": "(stereo not shown) [Fenbuconazole]", "values": [{"measurement": "hPXR activity in HeLa cells compared with NCGC DPX-2 cells", "setting": "hPXR [3]", "value": "more active in HeLa cells than DPX-2 cells"}, {"measurement": "NCGC ToxCast hPXR classification, in words", "setting": "hPXR [2]", "value": "nonagonists"}, {"measurement": "U.S. EPA ToxCast (NCGC) hPXR DPX-2 classification", "setting": "hPXR [2]", "value": "N (key: A, agonist; N, nonagonist)"}]}, {"compound": "CNC(=O)Oc1cccc2ccccc12", "note": "[Carbaryl]", "values": [{"measurement": "U.S. EPA ToxCast (NCGC) hPXR DPX-2 classification", "setting": "hPXR [2]", "value": "N (key: A, agonist; N, nonagonist)"}]}, {"compound": "CC1(C)C(C=C(Cl)Cl)C1C(=O)OC(C#N)c1ccc(F)c(Oc2ccccc2)c1", "note": "(stereo not drawn) [β-Cyfluthrin]", "values": [{"measurement": "PXR antagonist or allosteric antagonist activity", "setting": "hPXR [1]", "value": "not antagonists or allosteric antagonists"}, {"measurement": "Efficacy relative to 10 μM rifampicin", "setting": "hPXR [4]; HepG2 cells", "value": 0.54}, {"measurement": "hPXR agonist activity in HepG2 luciferase assay, in words", "setting": "hPXR [4]; HepG2 cells", "value": "agonists"}, {"measurement": "HepG2 hPXR agonist class", "setting": "hPXR [4]; [8]", "value": "S (S, EC50 < 10 μM)"}, {"measurement": "Activity in HepG2 cells compared with NCGC DPX-2 cells", "setting": "hPXR [4]", "value": "more active in HepG2 cells"}, {"measurement": "EC50", "setting": "hPXR [4]; [9]", "value": 2500, "unit": "nM"}, {"measurement": "EC50", "setting": "hPXR [2]", "value": 19.7, "unit": "µM"}, {"measurement": "NCGC ToxCast hPXR classification, in words", "setting": "hPXR [2]", "value": "agonists"}, {"measurement": "U.S. EPA ToxCast (NCGC) hPXR DPX-2 classification", "setting": "hPXR [2]", "value": "A (19.7) (key: A, agonist; N, nonagonist)"}, {"measurement": "IC50", "setting": "DPX-2 cells; read-out: Cell viability IC50, 48 hr", "value": "> 100", "unit": "µM"}, {"measurement": "DPX-2 hPXR agonist class", "setting": "hPXR [6]; DPX-2 cells, agonist mode", "value": "M (M, EC50 11–50 μM)"}, {"measurement": "EC50", "setting": "hPXR [6]; [11]", "value": 18.2, "unit": "µM"}]}]}
